Laboratory results: patent US11414416B1, “Compounds and uses thereof” (Foghorn Therapeutics Inc., priority 2019, dated 2022)

target: Nanoluciferase-BRD9 fusion protein (Homo sapiens (Human), UniProt Q9H8M2); assay: SYO1 BRD9 NanoLuc degradation assay; format: cell-based; settings: Table 5A; SYO-1 cells expressing 3×FLAG-NLuc-BRD9, 6 hours; read-out: SYO1 BRD9-NanoLuc degradation IC50
Procedure, shortened: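 Degradation was read as loss of nanoluciferase signal (Nano-Glo) after 6 h compound exposure in a stable SYO-1 line carrying 3×FLAG-NLuc-BRD9 (8000 cells/well). Normalised between DMSO (high) and a 1 μM known BRD9 degrader (low).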

Nanoluciferase-BRD9 fusion protein, sequence (Q9H8M2 whole entry, the tested form may be a part): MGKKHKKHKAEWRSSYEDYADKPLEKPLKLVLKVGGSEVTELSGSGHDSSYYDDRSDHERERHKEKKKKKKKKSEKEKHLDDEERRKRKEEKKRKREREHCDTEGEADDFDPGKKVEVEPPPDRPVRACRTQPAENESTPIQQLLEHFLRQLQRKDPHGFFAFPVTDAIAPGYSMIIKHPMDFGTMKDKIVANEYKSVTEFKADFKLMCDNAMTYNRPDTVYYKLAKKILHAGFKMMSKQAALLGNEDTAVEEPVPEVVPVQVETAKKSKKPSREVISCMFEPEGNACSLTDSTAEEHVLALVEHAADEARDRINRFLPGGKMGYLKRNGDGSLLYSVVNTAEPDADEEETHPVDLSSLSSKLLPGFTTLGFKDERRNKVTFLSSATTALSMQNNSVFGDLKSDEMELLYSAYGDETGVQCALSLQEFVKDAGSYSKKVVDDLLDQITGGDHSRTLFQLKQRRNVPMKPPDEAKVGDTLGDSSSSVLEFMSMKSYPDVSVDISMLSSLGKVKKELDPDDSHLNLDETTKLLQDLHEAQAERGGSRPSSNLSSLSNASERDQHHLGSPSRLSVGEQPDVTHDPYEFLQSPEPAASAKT

First: COc1cc(-c2cn(C)c(=O)c3cnccc23)cc(OC)c1CN1CC(S(=O)(=O)NCCN2CCN(c3ccc4c(c3)C(=O)N(C3CCC(=O)NC3=O)C4=O)CC2)C1 (stereo not drawn) [Compound D24, 1-[[2,6-dimethoxy-4-(2-methyl-1-oxo-2,7-naphthyridin-4-yl)phenyl]methyl]-N-(2-[4-[2-(2,6-dioxopiperidin-3-yl)-1,3-dioxoisoindol-5-yl]piperazin-1-yl]ethyl)azetidine-3-sulfonamide formic acid]
Second: COc1cc(-c2cn(C)c(=O)c3cnccc23)cc(OC)c1CN1CC(CC(=O)N2CCC3(CC2)CN(c2ccc4c(c2)C(=O)N(C2CCC(=O)NC2=O)C4=O)C3)C1 (stereo not drawn) [Compound D76]
The DC50 of the first is higher: 10 to 100 nM for the first, < 10 nM for the second.

First: COc1cc(-c2cn(C)c(=O)c3cnccc23)cc(OC)c1CN1CC2(CN(CCOc3ccc4c(c3)C(=O)N(C3CCC(=O)NC3=O)C4=O)C2)C1 (stereo not drawn) [Compound D43, 5-[2-(6-[[2,6-Dimethoxy-4-(2-methyl-1-oxo-2,7-naphthyridin-4-yl)phenyl]methyl]-2,6-diazaspiro[3.3]heptan-2-yl)ethoxy]-2-(2,6-dioxopiperidin-3-yl)isoindole-1,3-dione formic acid]
Second: COc1cc(-c2cn(C)c(=O)c3cnccc23)cc(OC)c1CN1CCN(CCCCCOc2ccc3c(c2)C(=O)N(C2CCC(=O)NC2=O)C3=O)CC1 (stereo not drawn) [Compound D44, 5-((5-(4-(2,6-dimethoxy-4-(2-methyl-1-oxo-1,2-dihydro-2,7-naphthyridin-4-yl)benzyl)piperazin-1-yl)pentyl)oxy)-2-(2,6-dioxopiperidin-3-yl)isoindoline-1,3-dione formic acid]
The DC50 of the first is higher: 100 to 1000 nM for the first, < 10 nM for the second.

First: COc1cc(-c2cn(C)c(=O)c3cnccc23)cc(OC)c1CN1CC(CC(=O)N2CCC3(CC2)CC(Oc2ccc4c(c2)C(=O)N(C2CCC(=O)NC2=O)C4=O)C3)C1 (stereo not drawn) [Compound D80]
Second: COc1cc(-c2cn(C)c(=O)c3cnccc23)cc(OC)c1CN1CC(CC(=O)NC2CC3(C2)CC(Oc2ccc4c(c2)C(=O)N(C2CCC(=O)NC2=O)C4=O)C3)C1 (stereo not drawn) [Compound D78]
The DC50 of the first is lower: < 10 nM for the first, 10 to 100 nM for the second.

`COc1cc(-c2cc(C)c(=O)n(C)c2)cc(OC)c1CN1CC(C(=O)NCCCCCCCCNc2cccc3c2C(=O)N(C2CCC(=O)NC2=O)C3=O)C1` (stereo not drawn) [Compound D16, 2-(2,6-dihydroxypiperidin-3-yl)-4-[(8-[[hydroxy(1-[[4-(6-hydroxy-1,5-dimethyl-1,6-dihydropyridin-3-yl)-2,6-dimethoxyphenyl]methyl]azetidin-3-yl)methyl]amino]octyl)amino]-2,3-dihydro-1H-isoindole-1,3-diol formic acid] and `COc1cc(-c2cn(C)c(=O)c3cnccc23)cc(OC)c1CN1CC[C@H]1C(=O)NCCCCCCCCNc1cccc2c1C(=O)N([C@H]1CCC(=O)NC1=O)C2=O` [Compound D19, (2S)-1-((2,6-dimethoxy-4-(2-methyl-1-oxo-2,7-naphthyridin-4-yl)phenyl)methyl)-N-(8-((2-((S)-2,6-dioxopiperidin-3-yl)-1,3-dioxoisoindol-4-yl)amino)octyl) azetidine-2-carboxamide] cannot be ordered by DC50: < 10 nM for the first, < 10 nM for the second.

same assay, conditions: Table 5B; SYO-1 cells expressing 3×FLAG-NLuc-BRD9, 6 hours; read-out: SYO1 BRD9-NanoLuc degradation IC50

First: COc1cc(-c2cn(C)c(=O)c3cnccc23)cc(OC)c1CN(C)CCn1cc(COC2CN(c3ccc4c(c3)C(=O)N(C3CCC(=O)NC3=O)C4=O)C2)nn1 (stereo not drawn) [Compound D277]
Second: COc1cc(-c2cn(C)c(=O)c3cnccc23)cc(OC)c1CN(C)CCn1cc(CN2CC(Oc3ccc4c(c3)C(=O)N(C3CCC(=O)NC3=O)C4=O)C2)nn1 (stereo not drawn) [Compound D276]
The DC50 of the first is lower: < 10 nM for the first, 10 to 100 nM for the second.

First: COc1cc(-c2cn(C)c(=O)c3cnccc23)cc(OC)c1CN1CCC2(CC1)CN(C(=O)CC#Cc1ccc3c(c1)C(=O)N(C1CCC(=O)NC1=O)C3=O)C2 (stereo not drawn) [Compound D318]
Second: COc1cc(-c2cn(C)c(=O)c3cnccc23)cc(OC)c1CN1CC2(C1)CN(C(=O)CC#Cc1ccc3c(c1)C(=O)N(C1CCC(=O)NC1=O)C3=O)C2 (stereo not drawn) [Compound D317]
The DC50 of the first is lower: < 10 nM for the first, 10 to 100 nM for the second.

Compared with `COc1cc(-c2cn(C)c(=O)c3cnccc23)cc(OC)c1CN1CC(CC(=O)N2CC3(CCC(Oc4ccc5c(c4)C(=O)N(C4CCC(=O)NC4=O)C5=O)C3)C2)C1` (stereo not drawn) [Compound D183], `COc1cc(-c2cn(C)c(=O)c3cnccc23)cc(OC)c1CN1CC(CC(=O)N2CC3(CC(Oc4ccc5c(c4)C(=O)N(C4CCC(=O)NC4=O)C5=O)C3)C2)C1` (stereo not drawn) [Compound D234] is lower in DC50: 100 to 1000 nM for the first, 10 to 100 nM for the second.

Compared with `COc1cc(-c2cn(C)c(=O)c3cnccc23)cc(OC)c1CN1CC(CCN2CCC3(CC2)CC(Oc2ccc4c(c2)C(=O)N(C2CCC(=O)NC2=O)C4=O)C3)C1` (stereo not drawn) [Compound D305], `COc1cc(-c2cn(C)c(=O)c3cnccc23)cc(OC)c1CN1CC(CC(=O)N2CCC3(CC(Oc4ccc5c(c4)C(=O)N([C@H]4CCC(=O)NC4=O)C5=O)C3)C2)C1` (stereo partly drawn) [Compound D267] is lower in DC50: 100 to 1000 nM for the first, 10 to 100 nM for the second.

`COc1cc(-c2cn(C)c(=O)c3cnccc23)cc(OC)c1CN(C)C(=O)CCCCN1CCC2(CC1)CC(Oc1ccc3c(c1)C(=O)N(C1CCC(=O)NC1=O)C3=O)C2` (stereo not drawn) [Compound D208] and `COc1cc(-c2cn(C)c(=O)c3cnccc23)cc(OC)c1CN(C)C(=O)CCCCN1CC2(CCC(Oc3ccc4c(c3)C(=O)N(C3CCC(=O)NC3=O)C4=O)C2)C1` (stereo not drawn) [Compound D207] cannot be ordered by DC50: < 10 nM for the first, < 10 nM for the second.

`COc1cc(-c2cc(C)c(=O)n(C)c2)cc(OC)c1CN1CCC2CN(c3ccc4c(c3)C(=O)N(C3CCC(=O)NC3=O)C4=O)C21` (stereo not drawn) [Compound D339] and `COc1cc(-c2cc(C)c(=O)n(C)c2)cc(OC)c1CN1CCN(c2ccc3c(c2)C(=O)N(C2CCC(=O)NC2=O)C3=O)CC1` (stereo not drawn) [Compound D330] cannot be ordered by DC50: < 10 nM for the first, < 10 nM for the second.

Compared with `COc1cc(-c2cn(C)c(=O)c3cnccc23)cc(OC)c1CN1CC2(C1)CN(C(=O)CCC#Cc1ccc3c(c1)C(=O)N(C1CCC(=O)NC1=O)C3=O)C2` (stereo not drawn) [Compound D200], `COc1cc(-c2cn(C)c(=O)c3cnccc23)cc(OC)c1CN1CCC2(C1)CN(CCCC#Cc1ccc3c(c1)C(=O)N(C1CCC(=O)NC1=O)C3=O)C2` (stereo not drawn) [Compound D238] is lower in DC50: 10 to 100 nM for the first, < 10 nM for the second.

`COc1cc(-c2cn(C)c(=O)c3nc(O)ccc23)cc(OC)c1CN1CCC(CN2CCC3(CC2)CC(Oc2ccc4c(c2)CN(C2CCC(=O)NC2=O)C4=O)C3)CC1` (stereo not drawn) [Compound D371] and `COc1cc(-c2cn(C)c(=O)c3cnccc23)cc(OC)c1CN1CC(CC(=O)N2CCC3(CC2)CCN(c2ccc4c(c2)C(=O)N(C2CCC(=O)NC2=O)C4=O)C3)C1` (stereo not drawn) [Compound D191] cannot be ordered by DC50: < 10 nM for the first, < 10 nM for the second.

First: COc1cc(-c2cn(C)c(=O)c3cnccc23)cc(OC)c1CN1CC(CC(=O)N2CCC3C2CN3c2ccc3c(c2)C(=O)N(C2CCC(=O)NC2=O)C3=O)C1 (stereo not drawn) [Compound D210]
Second: COc1cc(-c2cn(C)c(=O)c3cnccc23)cc(OC)c1CN1CC(CC(=O)N2CC3(CCN(c4ccc5c(c4)C(=O)N(C4CCC(=O)NC4=O)C5=O)C3)C2)C1 (stereo not drawn) [Compound D181]
The DC50 of the first is lower: 10 to 100 nM for the first, 100 to 1000 nM for the second.

Compared with `COc1cc(-c2cn(C)c(=O)c3cnccc23)cc(OC)c1CN1CCC2(CC1)CN(CCCC#Cc1ccc3c(c1)C(=O)N(C1CCC(=O)NC1=O)C3=O)C2` (stereo not drawn) [Compound D196], `COc1cc(-c2cn(C)c(=O)c3cnccc23)cc(OC)c1CN(C)CCCCN1CCC2(CC1)CCN(c1ccc3c(c1)C(=O)N(C1CCC(=O)NC1=O)C3=O)C2` (stereo not drawn) [Compound D224] is lower in DC50: 10 to 100 nM for the first, < 10 nM for the second.

First: COc1cc(-c2cn(C)c(=O)c3cnccc23)cc(OC)c1CN1CC(S(=O)(=O)NCCN2CCN(c3ccc4c(c3)C(=O)N(C3CCC(=O)NC3=O)C4=O)CC2)C1 (stereo not drawn) [Compound D179]
Second: COc1cc(-c2cn(C)c(=O)c3cnccc23)cc(OC)c1CN(C)C(=O)CCCCN1CC(Oc2ccc3c(c2)C(=O)N(C2CCC(=O)NC2=O)C3=O)C1 (stereo not drawn) [Compound D229]
The DC50 of the first is higher: 10 to 100 nM for the first, < 10 nM for the second.

`COc1cc(-c2cc(C)c(=O)n(C)c2)cc(OC)c1CN1Cc2cc3c(cc2C1)C(=O)N(C1CCC(=O)NC1=O)C3=O` (stereo not drawn) [DD9] and `COc1cc(-c2cn(C)c(=O)c3cnccc23)cc(OC)c1CN(C)CCCCN1CCCC2(CC(Oc3ccc4c(c3)C(=O)N([C@H]3CCC(=O)NC3=O)C4=O)C2)C1` (stereo partly drawn) [Compound D246] cannot be ordered by DC50: < 10 nM for the first, < 10 nM for the second.

same assay, conditions: Table 5C; SYO-1 cells expressing 3×FLAG-NLuc-BRD9, 6 hours; read-out: SYO1 BRD9-NanoLuc degradation IC50

First: COc1cc(-c2cn(C)c(=O)c3cnccc23)cc(OC)c1CN1CC(Oc2ccc3c(c2)C(=O)N(C2CCC(=O)NC2=O)C3=O)C1 (stereo not drawn) [Compound D372]
Second: COc1cc(-c2cc(C)cc3ccccc23)cc(OC)c1CN1CCC(CN2CCC3(CC2)CC(Oc2ccc4c(c2)C(=O)N(C2CCC(=O)NC2=O)C4=O)C3)CC1 (stereo not drawn) [DD11]
The DC50 of the first is lower: < 10 nM for the first, > 1000 nM for the second.

`COc1cc(-c2cc(C)c(=O)n(C)c2)cc(OC)c1CN1CCN(c2ccc3c(c2)C(=O)N(C2CCC(=O)NC2=O)C3)CC1` (stereo not drawn) [Compound D452] and `COc1cc(-c2cc(C(F)F)c(=O)n(C)c2)cc(OC)c1CN1CCC2(CC1)CN(c1ccc3c(c1)C(=O)N(C1CCC(=O)NC1=O)C3)C2` (stereo not drawn) [Compound D425] cannot be ordered by DC50: < 10 nM for the first, < 10 nM for the second.

Compared with `COc1cc(-c2cn(C)c(=O)c3cnccc23)cc(OC)c1CN1CCC2(CC1)CN(c1nccc(C(=O)NC3CCC(=O)NC3=O)n1)C2` (stereo not drawn) [Compound D472], `COc1cc(-c2cn(C)c(=O)c3cnccc23)cc(OC)c1CN1CCC(CN2CCC3(CN(c4ccc5c(c4)CN(C4CCC(=O)NC4=O)C5=O)C3)C(F)(F)C2)CC1` (stereo not drawn) [Compound D379] is lower in DC50: > 1000 nM for the first, < 10 nM for the second.

In the case of `COc1cccc(OC)c1CN1CCC2(CC1)CN(c1ccc3c(c1)C(=O)N(C1CCC(=O)NC1=O)C3)C2` (stereo not drawn) [DD12], the DC50 is reported as > 1000 nM.
